Experimental data as given in ChEMBL document CHEMBL1201862, “PubChem BioAssay data set” (2004).
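Values below derive from 48-hour exposures of cells grown in 96-well plates, with endpoints linearly interpolated between the two concentrations bracketing the appropriate inhibition level. At the GI50, growth is halved.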 The source made the active and inactive calls. Rule as the data show it: active = GI50 up to about 1.1 µM and inactive = higher.

What was measured:
Assay in all cases: NCI-60 cell line screen, 48 h
SK-OV-3 = tested on: SK-OV-3
OVCAR-3 = tested on: OVCAR-3
A498 = tested on: A498
DU-145 = tested on: DU-145
PC-3 = tested on: PC-3
SF-539 = tested on: SF-539
CAKI-1 = tested on: CAKI-1
HCC 2998 = tested on: HCC 2998
NCI-H460 = tested on: NCI-H460
EKVX = tested on: EKVX
NCI-H522 = tested on: NCI-H522
Hs-578T = tested on: Hs-578T
NCI-H226 = tested on: NCI-H226
ACHN = tested on: ACHN
HCT-15 = tested on: HCT-15
HOP-92 = tested on: HOP-92
K562 = tested on: K562
SK-MEL-2 = tested on: SK-MEL-2
MCF7 = tested on: MCF7
OVCAR-4 = tested on: OVCAR-4

Compound	GI50 (SK-OV-3)	GI50 (OVCAR-3)	GI50 (A498)	GI50 (DU-145)	GI50 (PC-3)	GI50 (SF-539)	GI50 (CAKI-1)	GI50 (HCC 2998)	GI50 (NCI-H460)	GI50 (EKVX)	GI50 (NCI-H522)	GI50 (Hs-578T)	GI50 (NCI-H226)	GI50 (ACHN)	GI50 (HCT-15) [µM]	GI50 (HOP-92)	GI50 (K562)	GI50 (SK-MEL-2)	GI50 (MCF7)	GI50 (OVCAR-4)
COc1cc(/C=C2/CCS(=O)(=O)c3ccc(C)cc3C2=O)cc(OC)c1OC	7.35 µM (inactive)	5.5 µM (inactive)	5.78 µM (inactive)	3.48 µM (inactive)	6.73 µM (inactive)	2.59 µM (inactive)	4.65 µM (inactive)	4.34 µM (inactive)	3.23 µM (inactive)	12.1 µM (inactive)	3.39 µM (inactive)	4.73 µM (inactive)	6.34 µM (inactive)	3.66 µM (inactive)	4.59	4.18 µM (inactive)	2.06 µM (inactive)	9.75 µM (inactive)	4.19 µM (inactive)	9.38 µM (inactive)
COC(=O)CN(CC(O)C(NC(C)=O)C(O)C=O)C(=O)OCc1ccccc1 (stereo not given)	> 100 µM (inactive)	> 100 µM (inactive)	> 100 µM (inactive)	> 100 µM (inactive)	> 100 µM (inactive)	> 100 µM (inactive)	> 100 µM (inactive)	> 100 µM (inactive)	> 100 µM (inactive)	> 100 µM (inactive)	> 100 µM (inactive)	> 100 µM (inactive)	> 100 µM (inactive)	> 100 µM (inactive)	> 31.6	> 100 µM (inactive)	> 100 µM (inactive)	> 100 µM (inactive)	> 100 µM (inactive)	> 100 µM (inactive)
O=[N+]([O-])c1cccc2nc3ccccc3c(NCCC[N+]3([O-])CCCCC3)c12	1.02 µM (active)	0.281 µM (active)	0.804 µM (active)	0.35 µM (active)	0.255 µM (active)	0.479 µM (active)	20 µM (inactive)	0.136 µM (active)	0.279 µM (active)	0.438 µM (active)	0.134 µM (active)	0.82 µM (active)	0.592 µM (active)	5.37 µM (inactive)	16	0.275 µM (active)	1.1 µM (active)	0.179 µM (active)	0.176 µM (active)	0.315 µM (active)
Sc1nn2c(COc3cc(Cl)c(OCc4nnc5sc(S)nn45)cc3Cl)nnc2s1	> 100 µM (inactive)	30.5 µM (inactive)	> 100 µM (inactive)	78.3 µM (inactive)	> 100 µM (inactive)	87.5 µM (inactive)	> 100 µM (inactive)	36.1 µM (inactive)	> 100 µM (inactive)	5.51 µM (inactive)	20.1 µM (inactive)	> 100 µM (inactive)	> 100 µM (inactive)	36.1 µM (inactive)	33.1	38.9 µM (inactive)	33.7 µM (inactive)	> 100 µM (inactive)	18.2 µM (inactive)	51.8 µM (inactive)
CC1=C(C(=O)OCCO[N+](=O)[O-])C(c2ccccc2[N+](=O)[O-])C(C(=O)OC(C)C)=C(C)N1 (stereo not given)	21.2 µM (inactive)	13 µM (inactive)	20.7 µM (inactive)	20.7 µM (inactive)	8.17 µM (inactive)	17.7 µM (inactive)	17 µM (inactive)	16 µM (inactive)	15.5 µM (inactive)	18.3 µM (inactive)	16 µM (inactive)	14.8 µM (inactive)	14 µM (inactive)	13.1 µM (inactive)	16.6	14.5 µM (inactive)	49.1 µM (inactive)	15.6 µM (inactive)	19.9 µM (inactive)	18 µM (inactive)
CCN(CC)C1C(=O)NC1C#Cc1ccccc1 (stereo not given)	> 100 µM (inactive)	> 100 µM (inactive)	> 100 µM (inactive)	> 100 µM (inactive)	> 100 µM (inactive)	> 100 µM (inactive)	38.4 µM (inactive)	> 100 µM (inactive)	> 100 µM (inactive)	> 100 µM (inactive)	25 µM (inactive)	> 100 µM (inactive)	> 100 µM (inactive)	> 100 µM (inactive)	96.6	18.9 µM (inactive)	42.3 µM (inactive)	> 100 µM (inactive)	49.2 µM (inactive)	> 100 µM (inactive)
NCCNc1nc(N2CCCC2)c2nc(Cl)c(NCc3ccccc3)nc2n1	1.82 µM (inactive)	1.68 µM (inactive)	1.83 µM (inactive)	1.61 µM (inactive)	2.5 µM (inactive)	1.96 µM (inactive)	5.27 µM (inactive)	1.51 µM (inactive)	1.85 µM (inactive)	1.73 µM (inactive)	1.67 µM (inactive)	2.53 µM (inactive)	3.15 µM (inactive)	1.95 µM (inactive)	1.95	1.78 µM (inactive)	0.122 µM (active)	1.79 µM (inactive)	1.73 µM (inactive)	2.16 µM (inactive)
COc1ccc([I+]c2ccc(OC)cc2)cc1	> 100 µM (inactive)	26.7 µM (inactive)	> 100 µM (inactive)	99.5 µM (inactive)	> 60 µM (inactive)	> 78.3 µM (inactive)	> 100 µM (inactive)	> 100 µM (inactive)	4.47 µM (inactive)	> 75 µM (inactive)	> 61.1 µM (inactive)	> 100 µM (inactive)	32.7 µM (inactive)	> 100 µM (inactive)	> 22.2	> 100 µM (inactive)	21.1 µM (inactive)	> 100 µM (inactive)	46.7 µM (inactive)	> 75.2 µM (inactive)
COC1(c2cccs2)c2ccccc2C(OC)(c2cccs2)c2ccccc21 (stereo not given)	86.1 µM (inactive)	> 100 µM (inactive)	28.5 µM (inactive)	71 µM (inactive)	42.9 µM (inactive)	36.5 µM (inactive)	> 100 µM (inactive)	49.3 µM (inactive)	> 100 µM (inactive)	36.9 µM (inactive)	97.9 µM (inactive)	0.518 µM (active)	> 100 µM (inactive)	> 100 µM (inactive)	> 100	54.2 µM (inactive)	36 µM (inactive)	50.5 µM (inactive)	84.7 µM (inactive)	33.7 µM (inactive)
CC(C(=O)[O-])S(=O)(=O)O.CCc1c2cc(OC)c(OC)cc2cc2c3cc(OC)c(OC)cc3cc[n+]12	41.6 µM (inactive)	12.4 µM (inactive)	53.1 µM (inactive)	14.2 µM (inactive)	17.9 µM (inactive)	9.77 µM (inactive)	60.4 µM (inactive)	15 µM (inactive)	42.4 µM (inactive)	67.6 µM (inactive)	3.09 µM (inactive)	4.81 µM (inactive)	9.73 µM (inactive)	58.9 µM (inactive)	38.4	29 µM (inactive)	7.57 µM (inactive)	25.6 µM (inactive)	9.89 µM (inactive)	10.2 µM (inactive)
CC(CCC(=O)O)(c1cc(Br)c(O)c(Br)c1)c1cc(Br)c(O)c(Br)c1	> 100 µM (inactive)	60.3 µM (inactive)	30.5 µM (inactive)	70.3 µM (inactive)	54.7 µM (inactive)	50.4 µM (inactive)	> 100 µM (inactive)	30.1 µM (inactive)	40.6 µM (inactive)	> 100 µM (inactive)	39.6 µM (inactive)	> 100 µM (inactive)	31.3 µM (inactive)	87.1 µM (inactive)	54.3	> 100 µM (inactive)	71.3 µM (inactive)	52.4 µM (inactive)	70.6 µM (inactive)	> 100 µM (inactive)
C/C(=C\c1ccc(Cl)cc1)C(C)(C)C(=O)O	> 100 µM (inactive)	> 100 µM (inactive)	> 100 µM (inactive)	> 100 µM (inactive)	> 100 µM (inactive)	> 100 µM (inactive)	> 100 µM (inactive)	> 100 µM (inactive)	> 100 µM (inactive)	> 100 µM (inactive)	> 100 µM (inactive)	> 100 µM (inactive)	> 100 µM (inactive)	> 100 µM (inactive)	> 100	> 100 µM (inactive)	1.95 µM (inactive)	> 100 µM (inactive)	> 100 µM (inactive)	> 100 µM (inactive)
CC1(C)CC(C)(C)C1=NNC(N)=O	> 100 µM (inactive)	> 100 µM (inactive)	> 100 µM (inactive)	> 100 µM (inactive)	> 100 µM (inactive)	> 100 µM (inactive)	> 100 µM (inactive)	> 100 µM (inactive)	> 100 µM (inactive)	> 100 µM (inactive)	> 100 µM (inactive)	> 100 µM (inactive)	> 100 µM (inactive)	> 100 µM (inactive)	> 100	> 100 µM (inactive)	> 100 µM (inactive)	> 100 µM (inactive)	> 100 µM (inactive)	> 100 µM (inactive)
O=[N+]([O-])/C(C(Cl)=C(Cl)Cl)=C(/Cl)SCc1ccccc1	21.2 µM (inactive)	3.66 µM (inactive)	24.3 µM (inactive)	17.3 µM (inactive)	16 µM (inactive)	6.62 µM (inactive)	3.18 µM (inactive)	24.8 µM (inactive)	16.3 µM (inactive)	20.4 µM (inactive)	2.78 µM (inactive)	4.48 µM (inactive)	25.2 µM (inactive)	2.89 µM (inactive)	5	4.33 µM (inactive)	1.15 µM (inactive)	22.1 µM (inactive)	0.495 µM (active)	2.85 µM (inactive)
